Laboratory results as given in PMC11144398, “Crizotinib inhibits the metabolism of tramadol by non-competitive suppressing the activities of CYP2D1 and CYP3A2” (PeerJ, 2024).

What was measured:
[1] = tested on: tramadol metabolism in human liver microsomes (HLM); test: Liver microsomal incubation assay: inhibition of tramadol metabolism in HLM; format: in vitro ADME
Method: (§1) All the substance meet the requirements for analysis.
(§2) To obtain the Michaelis kinetic parameters of tramadol in RLM and HLM, a 200 µL incubation system was established containing 2 µL RLM or HLM (0.2 mg/mL), 186 µL 1xPBS buffer (pH = 7.4), 2 µL tramadol (10–500 µM), and 10 µL NADPH (1 mM). The mixture was pre-incubated for 5 min without NADPH in a water bath shaking at 37 °C. Then, NADPH was added to initiate the reaction, and the mixture was incubated for another 30 min. The reaction was terminated by adding 400 µL of cold ACN and 20 µL of IS (500 ng/mL).
(§3) To determine the half-maximal inhibitory concentration (IC50), the concentration of crizotinib was set at 0.01, 0.1, 1, 10, 25, 50, and 100 µM, while the concentration of tramadol was constant at 60 µM in RLM or 100 µM in HLM (according to Km).
(§4) All data were presented as mean ± SD (standard deviation).

[2] = tested on: tramadol metabolism in human liver microsomes; test: as above; format: in vitro ADME; settings: human, human liver microsomes, pH 7.4, probe tramadol 100 µM, tramadol 100 µM, crizotinib 0.01-100 µM
Method: as §1, §2, §3, §4

[3] = tested on: liver, kidney and small intestine; test: Morphological examination (H&E staining) of liver, kidney and small intestine; format: in vivo, Sprague-Dawley rats; settings: crizotinib 45 mg/kg, single dose or 7 consecutive days; vs control group E
Method: […] […] The blood, liver, kidney, and small intestine were harvested within 10 min and flash-frozen in liquid nitrogen before being transferred to −80 °C for later use.
Additionally, the tissues were fixed in 10% formalin solution and embedded in paraffin. Hematoxylin-eosin (H&E) staining was performed on paraffin sections, which had been dewaxed, dehydrated, and sealed with neutral gum. Pannoramic MIDI was then used to observe the tissues.

[4] = biological target: T1, CYP2D1 (Rattus norvegicus, UniProt P10633); test: Activity of CYP2D1 in liver microsomes of treated rats (dextromethorphan probe); format: in vitro ADME
T1 construct: All liver tissue samples were extracted into liver microsomes by homogenization and centrifugation; from tissue; host or cells: liver microsomes of Sprague-Dawley rats (control or dosed with crizotinib)
T1 sequence (P10633 1-504): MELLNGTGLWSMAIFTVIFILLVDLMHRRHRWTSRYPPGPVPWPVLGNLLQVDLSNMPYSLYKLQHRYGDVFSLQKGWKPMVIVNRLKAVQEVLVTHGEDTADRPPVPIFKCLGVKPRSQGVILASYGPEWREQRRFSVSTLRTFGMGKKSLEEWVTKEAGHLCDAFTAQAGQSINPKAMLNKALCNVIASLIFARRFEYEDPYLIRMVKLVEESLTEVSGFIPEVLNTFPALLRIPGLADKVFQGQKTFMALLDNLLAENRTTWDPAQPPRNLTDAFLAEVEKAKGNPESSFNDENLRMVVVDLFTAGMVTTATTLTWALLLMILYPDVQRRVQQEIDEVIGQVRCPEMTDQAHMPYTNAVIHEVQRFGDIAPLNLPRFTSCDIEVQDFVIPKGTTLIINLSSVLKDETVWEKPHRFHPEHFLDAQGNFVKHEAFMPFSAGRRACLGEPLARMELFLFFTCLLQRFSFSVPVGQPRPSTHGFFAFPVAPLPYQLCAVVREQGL
Method: (§5) Nine rats were randomly divided into three groups (n = 3): group E received 0.5% CMC-Na for 7 days; group F received 45 mg/kg crizotinib for 6 days; and group G received 45 mg/kg of crizotinib for 7 days. […] The blood, liver, kidney, and small intestine were harvested within 10 min and flash-frozen in liquid nitrogen before being transferred to −80 °C for later use.
(§6) All liver tissue samples were extracted into liver microsomes by homogenization and centrifugation, following the same operational steps as previously reported ([Simpson, 2010]). A new incubation system was established, which included 2 µL dextromethorphan or midazolam (the probe substrate of CYP2D1 or CYP3A2), 2 uL RLM (0.2 mg/mL) from different groups, 186 µL 1xPBS buffer, and 10 µL NADPH (1 mM). […] UPLC-MS/MS was used to detect the concentration of dextrorphan and 1-hydroxymidazolam to determine whether the activities of CYP2D1 and CYP3A2 in the liver were affected by crizotinib.

[5] = biological target: T2, CYP3A2 (Rattus norvegicus, UniProt P05183); test: Activity of CYP3A2 in liver microsomes of treated rats (midazolam probe); format: in vitro ADME; settings: RLM from crizotinib-treated rats (45 mg/kg); midazolam 10 µM
T2 construct: All liver tissue samples were extracted into liver microsomes by homogenization and centrifugation; from tissue; host or cells: liver microsomes of Sprague-Dawley rats (control or dosed with crizotinib)
T2 sequence (P05183 1-504): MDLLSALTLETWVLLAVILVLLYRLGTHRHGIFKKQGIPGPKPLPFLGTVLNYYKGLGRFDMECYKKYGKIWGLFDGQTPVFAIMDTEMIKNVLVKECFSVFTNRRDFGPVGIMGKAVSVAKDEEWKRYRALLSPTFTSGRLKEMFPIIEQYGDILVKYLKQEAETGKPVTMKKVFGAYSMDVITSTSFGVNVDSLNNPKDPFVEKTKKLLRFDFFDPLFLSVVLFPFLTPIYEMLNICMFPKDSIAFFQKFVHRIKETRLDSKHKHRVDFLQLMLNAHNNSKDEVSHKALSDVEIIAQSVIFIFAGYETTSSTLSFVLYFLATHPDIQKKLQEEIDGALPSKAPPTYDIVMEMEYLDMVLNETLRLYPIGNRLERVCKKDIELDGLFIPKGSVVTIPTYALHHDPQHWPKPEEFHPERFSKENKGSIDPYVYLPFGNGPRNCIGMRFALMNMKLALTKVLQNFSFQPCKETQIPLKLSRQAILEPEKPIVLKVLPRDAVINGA
Method: as §5, §6

C[C@@H](Oc1cc(-c2cnn(C3CCNCC3)c2)cnc1N)c1c(Cl)ccc(F)c1Cl [crizotinib]
inhibition mode of tramadol metabolism ([1]; Lineweaver-Burk plot): non-competitive
Ki ([1]; Lineweaver-Burk, crizotinib 0, 5, 10, 20 µM, tramadol 25-200 µM): 14.4 µM
IC50 at 30 min [2]: 11.9 ± 0.25 µM
changes in cell morphology, size, arrangement, nuclear morphology of liver, kidney and small intestine (H&E) [3]: no obvious changes
metabolic rate of dextromethorphan (CYP2D1 activity) ([4]; RLM from crizotinib-treated rats (45 mg/kg), dextromethorphan 25 µM): decreased to different extents
metabolic rate of dextromethorphan (CYP2D1 activity) ([4]; crizotinib administered for seven days): significant decrease
metabolic rate of midazolam (CYP3A2 activity) [5]: decreased to different extents
